Numbers after ± are expanded uncertainties.
Experiment: xn = mol fraction of the nth substance listed

CC1CCC(=O)O1 (stereo not given) [γ-valerolactone] + O=C=O
Fluid (supercritical or subcritical phases), Pycnometric method
Conditions	mass density [kg/m3]
327.9 K, 12360 kPa, x1 = 0.1	876 ± 5
327.9 K, 12500 kPa, x1 = 0.05	784 ± 6
327.9 K, 12510 kPa, x1 = 0.025	726 ± 6
327.9 K, 12630 kPa, x1 = 0.01	657 ± 8
327.9 K, 12640 kPa, x1 = 0.15	937 ± 4
327.9 K, 12700 kPa, x1 = 0.05	790 ± 5
327.9 K, 12720 kPa, x1 = 0.025	735 ± 8
327.9 K, 12740 kPa, x1 = 0.1	882 ± 5
327.9 K, 12920 kPa, x1 = 0.05	795 ± 5
327.9 K, 13010 kPa, x1 = 0.025	745 ± 8
327.9 K, 13120 kPa, x1 = 0.15	941 ± 4
327.9 K, 13130 kPa, x1 = 0.1	888 ± 4
327.9 K, 13160 kPa, x1 = 0.05	800 ± 5
327.9 K, 13320 kPa, x1 = 0.025	755 ± 6
327.9 K, 13370 kPa, x1 = 0.1	891 ± 4
327.9 K, 13410 kPa, x1 = 0.05	805 ± 5
327.9 K, 13520 kPa, x1 = 0.15	943 ± 4
327.9 K, 13640 kPa, x1 = 0.1	894 ± 5
327.9 K, 13660 kPa, x1 = 0.025	765 ± 6
327.9 K, 13700 kPa, x1 = 0.05	811 ± 5
327.9 K, 13980 kPa, x1 = 0.15	947 ± 4
327.9 K, 14010 kPa, x1 = 0.05	817 ± 5
327.9 K, 14060 kPa, x1 = 0.025	776 ± 5
327.9 K, 14180 kPa, x1 = 0.1	900 ± 4
327.9 K, 14330 kPa, x1 = 0.05	823 ± 5
327.9 K, 14440 kPa, x1 = 0.15	949 ± 4
327.9 K, 14700 kPa, x1 = 0.05	829 ± 5
327.9 K, 14780 kPa, x1 = 0.1	907 ± 4
327.9 K, 14900 kPa, x1 = 0.15	952 ± 4
327.9 K, 15080 kPa, x1 = 0.05	835 ± 5
327.9 K, 15410 kPa, x1 = 0.1	913 ± 4
327.9 K, 15460 kPa, x1 = 0.15	956 ± 4
327.9 K, 15940 kPa, x1 = 0.15	959 ± 4
327.9 K, 16050 kPa, x1 = 0.1	919 ± 4
327.9 K, 16480 kPa, x1 = 0.15	962 ± 4
327.9 K, 17080 kPa, x1 = 0.15	965 ± 4
332.8 K, 12270 kPa, x1 = 0.025	651 ± 9
332.8 K, 12280 kPa, x1 = 0.025	652 ± 8
332.8 K, 12340 kPa, x1 = 0.025	655 ± 9
332.8 K, 12390 kPa, x1 = 0.025	659 ± 8
332.8 K, 12460 kPa, x1 = 0.025	663 ± 8
332.8 K, 12530 kPa, x1 = 0.025	667 ± 6
332.8 K, 12600 kPa, x1 = 0.025	671 ± 7
332.8 K, 12680 kPa, x1 = 0.025	675 ± 6
332.8 K, 12840 kPa, x1 = 0.025	683 ± 9
332.8 K, 12980 kPa, x1 = 0.025	690 ± 9
332.8 K, 13130 kPa, x1 = 0.025	696 ± 9
332.8 K, 13420 kPa, x1 = 0.025	710 ± 8
332.8 K, 13670 kPa, x1 = 0.025	718 ± 9
332.8 K, 13940 kPa, x1 = 0.025	728 ± 6
332.8 K, 14270 kPa, x1 = 0.025	738 ± 5
332.8 K, 14540 kPa, x1 = 0.025	744 ± 5
332.8 K, 14820 kPa, x1 = 0.025	752 ± 5
332.8 K, 15190 kPa, x1 = 0.025	761 ± 5
332.9 K, 11320 kPa, x1 = 0.01	487 ± 13
332.9 K, 11330 kPa, x1 = 0.01	488 ± 13
332.9 K, 11340 kPa, x1 = 0.01	490 ± 12
332.9 K, 11350 kPa, x1 = 0.01	491 ± 12
332.9 K, 11370 kPa, x1 = 0.01	493 ± 12
332.9 K, 11380 kPa, x1 = 0.01	494 ± 12
332.9 K, 11400 kPa, x1 = 0.01	496 ± 12
332.9 K, 11410 kPa, x1 = 0.01	497 ± 12
332.9 K, 11420 kPa, x1 = 0.01	498 ± 11
332.9 K, 11440 kPa, x1 = 0.01	500 ± 12
332.9 K, 11450 kPa, x1 = 0.01	501 ± 5
332.9 K, 11470 kPa, x1 = 0.01	503 ± 11
332.9 K, 11490 kPa, x1 = 0.01	506 ± 15
332.9 K, 11520 kPa, x1 = 0.01	509 ± 8
332.9 K, 11560 kPa, x1 = 0.01	511 ± 11
332.9 K, 11600 kPa, x1 = 0.01	515 ± 11
332.9 K, 11630 kPa, x1 = 0.01	518 ± 11
332.9 K, 11660 kPa, x1 = 0.01	521 ± 11
332.9 K, 11700 kPa, x1 = 0.01	524 ± 11
332.9 K, 11730 kPa, x1 = 0.01	527 ± 11
332.9 K, 11770 kPa, x1 = 0.01	531 ± 10
332.9 K, 11810 kPa, x1 = 0.01	534 ± 24
332.9 K, 11850 kPa, x1 = 0.01	537 ± 10
332.9 K, 11890 kPa, x1 = 0.01	540 ± 9
332.9 K, 11940 kPa, x1 = 0.01	543 ± 25
332.9 K, 11990 kPa, x1 = 0.01	547 ± 25
332.9 K, 12040 kPa, x1 = 0.01	551 ± 11
332.9 K, 12090 kPa, x1 = 0.01	554 ± 6
332.9 K, 12140 kPa, x1 = 0.01	558 ± 4
332.9 K, 12190 kPa, x1 = 0.01	561 ± 18
332.9 K, 12240 kPa, x1 = 0.01	565 ± 14
332.9 K, 12290 kPa, x1 = 0.01	569 ± 9
332.9 K, 12340 kPa, x1 = 0.01	573 ± 9
332.9 K, 12390 kPa, x1 = 0.01	576 ± 9
332.9 K, 12460 kPa, x1 = 0.01	580 ± 8
332.9 K, 12530 kPa, x1 = 0.01	584 ± 8
332.9 K, 12590 kPa, x1 = 0.01	588 ± 8
332.9 K, 12600 kPa, x1 = 0.15	914 ± 4
332.9 K, 12670 kPa, x1 = 0.01	592 ± 8
332.9 K, 12750 kPa, x1 = 0.15	916 ± 4
332.9 K, 12800 kPa, x1 = 0.01	600 ± 8
332.9 K, 12820 kPa, x1 = 0.05	743 ± 6
332.9 K, 12860 kPa, x1 = 0.05	743 ± 7
332.9 K, 12920 kPa, x1 = 0.05	746 ± 6
332.9 K, 12950 kPa, x1 = 0.01	608 ± 8
332.9 K, 13060 kPa, x1 = 0.05	751 ± 6
332.9 K, 13070 kPa, x1 = 0.1	854 ± 9
332.9 K, 13090 kPa, x1 = 0.15	919 ± 4
332.9 K, 13110 kPa, x1 = 0.01	617 ± 8
332.9 K, 13170 kPa, x1 = 0.1	856 ± 9
332.9 K, 13220 kPa, x1 = 0.05	755 ± 6
332.9 K, 13270 kPa, x1 = 0.1	858 ± 5
332.9 K, 13330 kPa, x1 = 0.01	628 ± 7
332.9 K, 13380 kPa, x1 = 0.05	760 ± 6
332.9 K, 13420 kPa, x1 = 0.1	861 ± 5
332.9 K, 13440 kPa, x1 = 0.15	922 ± 4
332.9 K, 13550 kPa, x1 = 0.05	766 ± 5
332.9 K, 13550 kPa, x1 = 0.1	863 ± 6
332.9 K, 13730 kPa, x1 = 0.1	865 ± 5
332.9 K, 13730 kPa, x1 = 0.15	925 ± 4
332.9 K, 13760 kPa, x1 = 0.05	770 ± 5
332.9 K, 13890 kPa, x1 = 0.1	867 ± 6
332.9 K, 13960 kPa, x1 = 0.05	776 ± 5
332.9 K, 14060 kPa, x1 = 0.1	870 ± 5
332.9 K, 14160 kPa, x1 = 0.05	781 ± 5
332.9 K, 14250 kPa, x1 = 0.15	928 ± 4
332.9 K, 14260 kPa, x1 = 0.1	873 ± 5
332.9 K, 14400 kPa, x1 = 0.05	786 ± 5
332.9 K, 14470 kPa, x1 = 0.1	876 ± 4
332.9 K, 14620 kPa, x1 = 0.15	931 ± 4
332.9 K, 14680 kPa, x1 = 0.05	792 ± 5
332.9 K, 14680 kPa, x1 = 0.1	878 ± 5
332.9 K, 14960 kPa, x1 = 0.05	798 ± 5
332.9 K, 15000 kPa, x1 = 0.15	933 ± 4
332.9 K, 15140 kPa, x1 = 0.1	884 ± 5
332.9 K, 15260 kPa, x1 = 0.05	803 ± 5
332.9 K, 15420 kPa, x1 = 0.1	888 ± 4
332.9 K, 15420 kPa, x1 = 0.15	937 ± 4
332.9 K, 15550 kPa, x1 = 0.05	809 ± 5
332.9 K, 15660 kPa, x1 = 0.1	891 ± 4
332.9 K, 15840 kPa, x1 = 0.15	940 ± 4
332.9 K, 15950 kPa, x1 = 0.1	894 ± 5
332.9 K, 16260 kPa, x1 = 0.1	897 ± 4
332.9 K, 16380 kPa, x1 = 0.15	943 ± 4
332.9 K, 16560 kPa, x1 = 0.1	900 ± 4
332.9 K, 16870 kPa, x1 = 0.1	904 ± 4
332.9 K, 17190 kPa, x1 = 0.1	907 ± 4
337.9 K, 14310 kPa, x1 = 0.1	841 ± 5
337.9 K, 14470 kPa, x1 = 0.1	844 ± 5
337.9 K, 14580 kPa, x1 = 0.1	846 ± 5
337.9 K, 14740 kPa, x1 = 0.1	848 ± 4
337.9 K, 14900 kPa, x1 = 0.1	851 ± 5
337.9 K, 15020 kPa, x1 = 0.1	852 ± 5
337.9 K, 15200 kPa, x1 = 0.1	855 ± 5
337.9 K, 15360 kPa, x1 = 0.1	857 ± 5
337.9 K, 15580 kPa, x1 = 0.1	859 ± 5
337.9 K, 15740 kPa, x1 = 0.1	862 ± 5
337.9 K, 15940 kPa, x1 = 0.1	864 ± 5
337.9 K, 16190 kPa, x1 = 0.1	868 ± 5
337.9 K, 16420 kPa, x1 = 0.1	871 ± 5
337.9 K, 16660 kPa, x1 = 0.1	874 ± 4
337.9 K, 16920 kPa, x1 = 0.1	877 ± 5
337.9 K, 17400 kPa, x1 = 0.1	883 ± 4

mass density [kg/m3], high pressure variable cell
Conditions	327.9 K	332.8 K	332.9 K
Gas, x1 = 0.01	496 ± 4	–	486 ± 4
Gas, x1 = 0.025	660 ± 4	649 ± 5	–
Gas, x1 = 0.05	753 ± 4	–	742 ± 4
Liquid, x1 = 0.1	863 ± 4	–	851 ± 4
Liquid, x1 = 0.15	925 ± 4	–	913 ± 4

Liquid, high pressure variable cell
Conditions	Critical density [kg/m3]
x1 = 0.025	679 ± 16
x1 = 0.05	774 ± 18
x1 = 0.1	837 ± 19
